Assay results: patent publication US20060228297A1, “Thorium-227 for use in radiotherapy of soft tissue disease” (priority 2003, published 2006)
Read-outs that look alike come from different tables or passages of the source.

What was measured:
[1] = tested on: CD20 antigen expressing human lymphoma cell line DAUDI; test: Binding of ^227Th labeled antibody to DAUDI human lymphoma cells; conditions: for Mean cpm bound per cell pellet, Unblocked: 2×10^7 DAUDI cells, two hours at 8° C., mean of a duplicate; for Mean cpm bound per cell pellet, Blocked: cells pre-saturated with 40 μg unlabeled rituximab; for Thorium-227 atoms bound per cell, Blocked: cells pre-saturated with unlabeled rituximab
Procedure: DAUDI cells were purchased from European Collection of Cell Cultures (ECACC), Salisbury, UK, and grown according to supplier's instructions using culture medium and supplement from Gibco (Paisley, Scotland, UK) and using 500 ml culture flasks (Cell Star, Greiner Bio-One GmbH, Frickenhausen, Germany). DAUDI cells (2×10^7 cells in 0.7 ml PBS) were used to study binding of ^227Th labeled rituximab in vitro. As control of nonspecific binding, DAUDI cells pre-saturated (blocked) with 40 μg unlabeled rituximab for 15 minutes were used. To the test tubes (Polystyrene culture test tubes, 12×75 mm, Elkay, Shrewsbury, Mass., USA) were added ^227Th labeled rituximab corresponding to 1.3, 5.3, or 26 μg/ml respectively. The experiment was performed in duplicate at each concentration level using unblocked and blocked cells. Incubation was performed for two hours at 8° C. After incubation, cell suspensions were counted for radioactivity (Crystal II Multidetector, Packard Instrument Company Inc. Downers Grove, Ill., USA) and the cells washed with 2 ml of 1% BSA (Albumin, Bovine Fraction V, Sigma Chemical Co., St. Louis, Mo., USA) in PBS (Gibco, Paisley, Scotland, UK) and centrifuged (Centrifuge 5810 R, Eppendorf AG, Hamburg, Germany) at 200 rpm for 5 minutes. The washing/centrifugation was repeated twice. Thereafter the cell pellets were counted for radioactivity. The results (each the mean of a duplicate) are set out in Table 3 below.

adult dogs = conditions: cited from earlier work; for % of baseline at nadir (neutrophils) / Days to nadir (neutrophils): dogs
[2] = 13 kBq/kg single intravenous injection
[3] = 40 kBq/kg single intravenous injection
[4] = 120 kBq/kg single intravenous injection
[5] = 350 kBq/kg single intravenous injection

## ^227Th-labeled rituximab
[1]; RIC conc. 1.3 μg/ml added
  Thorium-227 atoms bound per cell, Net specific bound: 1.7
  Thorium-227 atoms bound per cell, Unblocked: 1.9
  Mean cpm bound per cell pellet, Unblocked: 226 cpm
  Mean cpm bound per cell pellet, Blocked: 25 cpm
  Thorium-227 atoms bound per cell, Blocked: 0.2
[1]; RIC conc. 5.3 μg/ml added
  Thorium-227 atoms bound per cell, Net specific bound: 9.3
  Thorium-227 atoms bound per cell, Unblocked: 10.1
  Mean cpm bound per cell pellet, Unblocked: 1186 cpm
  Mean cpm bound per cell pellet, Blocked: 97 cpm
  Thorium-227 atoms bound per cell, Blocked: 0.8
[1]; RIC conc. 26.0 μg/ml added
  Thorium-227 atoms bound per cell, Net specific bound: 32.5
  Thorium-227 atoms bound per cell, Unblocked: 35.2
  Mean cpm bound per cell pellet, Unblocked: 4141 cpm
  Mean cpm bound per cell pellet, Blocked: 315 cpm
  Thorium-227 atoms bound per cell, Blocked: 2.7
[1]; on average over the three concentrations
  RIC bound to the unblocked vs. the blocked cells: about 12 times
[1]; unblocked vs. blocked cells
  Specific binding to the DAUDI cells: did bind specifically

## [224Ra] [^224Ra, radium-224]
Adult dogs; 350 kBq/kg
  Death caused by haematological dyscrasia resulting from bone marrow destruction, number of dogs: 3 dogs out of 8
Adult dogs; [2]
  % of baseline at nadir (neutrophils): 60%
  Days to nadir (neutrophils): 30 days
Adult dogs; [3]
  % of baseline at nadir (neutrophils): 70%
  Days to nadir (neutrophils): 10 days
Adult dogs; [4]
  % of baseline at nadir (neutrophils): 20%
  Days to nadir (neutrophils): 10 days
Adult dogs; [5]
  % of baseline at nadir (neutrophils): 4%
  Days to nadir (neutrophils): 10 days
